From patent US8178506B2, “Oligomeric compounds and compositions for use in modulation of small non-coding RNAs” (Regulus Therapeutics Inc., priority 2003, dated 2012) come the findings set out here.

In the oligonucleotide strings, read from the 5' end, every base follows the letter of its sugar. An asterisk marks phosphorothioate; unmarked linkages are phosphodiester. Other units and linkages are bracketed, terminal groups are in braces. A string of capitals states the bases alone. e = 2'-O-(2-methoxyethyl) (MOE); [5mC] = 5-methylcytosine; d = 2'-deoxy (DNA)

The subject of the data set is IGFBP-1. The data set is described as follows: IGFBP-1 mRNA expression in HepG2 cells. It is filed as cell-based, human. The following applies: for IGFBP1 mRNA expression: Experiment 2, insulin treated: HepG2 cells transfected with oligomeric compound, 1 nM insulin for four hours, UTC + 1 nM insulin = 100; for IGFBP1 mRNA: four hours, UTC = 100.
Setting [1] is: Experiment 1, basal (no insulin), HepG2, 100 nM oligomeric compound.
[2] abbreviates: Experiment 2, 1 nM insulin treated, HepG2, 100 nM oligomeric compound.
[3] abbreviates: HepG2 cells, Experiment 1, basal (no insulin).
Where [4] appears, read: Experiment 3, basal (no insulin), HepG2 cells, 48 hours post-transfection.
Setting [5] is: Experiment 4, insulin-sensitization: HepG2 cells treated with 1 nM insulin for four hours, 48 h post-transfection, mRNA by real-time PCR.

Consider “327913 (antisense eA*eA*e[5mC]*e[5mC]*eG*eA*eT*eT*eT*e[5mC]*eA*eA*eA*eT*eG*eG*eT*eG*e[5mC]*eT*eA*eG) [compound 327913]”, for which the “IGFBP-1 (% UTC)” value turned out to be 123 % UTC under setting [1] and 147 % UTC under setting [2].

As to “327918 (antisense e[5mC]*eT*eA*eG*eT*eA*e[5mC]*eA*eT*e[5mC]*eA*eT*e[5mC]*eT*eA*eT*eA*e[5mC]*eT*eG*eT*eA) [compound 327918]”, the “IGFBP1 mRNA expression” value amounted to 81. For the same substance, under setting [3], the “IGFBP1 mRNA” value stood at 95.

As for “341804 (antisense ATCTGCACTGTCAGCACTTT; all 2'-MOE, all phosphorothioate, methylation of C not given here) [compound 341804]”, the “IGFBP1 mRNA” value under setting [3] worked out at 162.

For the substance “327887 (antisense eG*e[5mC]*eG*eA*e[5mC]*e[5mC]*eA*eT*eG*eG*e[5mC]*eT*eG*eT*eA*eG*eA*e[5mC]*eT*eG*eT*eT*eA) [compound 327887]”, the “IGFBP1 mRNA” value under setting [3] is listed as 119.

On to “327897 (antisense eA*e[5mC]*eA*eG*eG*e[5mC]*e[5mC]*eG*eG*eG*eA*e[5mC]*eA*eA*eG*eT*eG*e[5mC]*eA*eA*eT*eA) [compound 327897]”, for which the “IGFBP1 mRNA expression” value was 243. The “IGFBP1 mRNA” value under setting [3] is recorded as 163.

Regarding “328115 (antisense eA*eG*eA*eA*eG*eG*eT*eG*eG*eG*eG*eA*eG*e[5mC]*eA*eG*e[5mC]*eG*eT*e[5mC]*eA) [compound 328115]”, the “IGFBP1 mRNA expression” value was found to be 120.

As for “327916 (antisense eT*eG*eG*e[5mC]*eA*eT*eT*e[5mC]*eA*e[5mC]*e[5mC]*eG*e[5mC]*eG*eT*eG*e[5mC]*e[5mC]*eT*eT*eA*eA) [compound 327916]”, the “IGFBP1 mRNA expression” value amounted to 128. The “IGFBP1 mRNA” value under setting [3] is given as 102.

“327899 (antisense e[5mC]*eA*eG*eT*eG*eA*eA*eT*eT*e[5mC]*eT*eA*e[5mC]*e[5mC]*eA*eG*eT*eG*e[5mC]*e[5mC]*eA*eT*eA) [compound 327899]”: the “IGFBP1 mRNA” value under setting [3] turned out to be 105.

For “341805 (antisense ACCCTTATCAGTTCTCCGTCCA; all 2'-MOE, all phosphorothioate, methylation of C not given here) [compound 341805]”, the “IGFBP1 mRNA” value under setting [3] is recorded as 105.

In the case of “328114 (antisense eA*eA*eT*e[5mC]*eT*e[5mC]*eA*eT*eT*eT*eT*e[5mC]*eA*eT*eA*e[5mC]*eT*eT*eG*e[5mC]*eA) [compound 328114]”, the “IGFBP1 mRNA expression” value worked out at 177.

Turning to “328691 (e[5mC]*e[5mC]*e[5mC]*e[5mC]*eA*dT*d[5mC]*dT*dT*dA*dG*d[5mC]*dA*dT*d[5mC]*eT*eA*eA*eG*eG) [compound 328691]”, the “IGFBP-1 (% UTC)” value is 105 % UTC under setting [4] and 101 % UTC under setting [5].

Turning to “327885 (antisense eA*e[5mC]*eT*eA*e[5mC]*e[5mC]*eT*eG*e[5mC]*eA*e[5mC]*eT*eG*eT*eA*eA*eG*e[5mC]*eA*e[5mC]*eT*eT*eT*eG) [compound 327885]”, under setting [3], the “IGFBP1 mRNA” value is on record as 161.

Consider “327920 (antisense eG*eA*eG*eA*e[5mC]*e[5mC]*e[5mC]*eA*eG*eT*eA*eG*e[5mC]*e[5mC]*eA*eG*eA*eT*eG*eT*eA*eG*e[5mC]*eT) [compound 327920]”, for which the “IGFBP1 mRNA expression” value is listed as 267. The “IGFBP1 mRNA” value under setting [3] came to 165.

“327895 (antisense eA*e[5mC]*eA*eA*eA*e[5mC]*eA*e[5mC]*e[5mC]*eA*eT*eT*eG*eT*e[5mC]*eA*e[5mC]*eA*e[5mC]*eT*e[5mC]*e[5mC]*eA) [compound 327895]”: the “IGFBP1 mRNA” value under setting [3] is on record as 108.

In the case of “340927 (antisense eT*eG*eA*eG*e[5mC]*dT*dA*d[5mC]*dA*dG*dT*dG*d[5mC]*dT*dT*e[5mC]*eA*eT*e[5mC]*eT*e[5mC]*eA) [compound 340927]”, the “IGFBP-1 (% UTC)” value by setting is: under setting [1], 201 % UTC; under setting [2], 285 % UTC.

Regarding “341803 (antisense CCACACACTTCCTTACATTCCA; all 2'-MOE, all phosphorothioate, methylation of C not given here) [compound 341803]”, the “IGFBP1 mRNA” value under setting [3] is reported as 107.

“327900 (antisense e[5mC]*eT*eG*e[5mC]*e[5mC]*eT*eG*eT*e[5mC]*eT*eG*eT*eG*e[5mC]*e[5mC]*eT*eG*e[5mC]*eT*eG*eT) [compound 327900]”: the “IGFBP1 mRNA” value under setting [3] stood at 102.

“327878 (antisense e[5mC]*eT*eA*eG*eT*eG*eG*eT*e[5mC]*e[5mC]*eT*eA*eA*eA*e[5mC]*eA*eT*eT*eT*e[5mC]*eA*e[5mC]) [compound 327878]”: the “IGFBP-1 (% UTC)” value reads like this: under setting [1], 162 % UTC; under setting [2], 185 % UTC.

As for “327911 (antisense eG*e[5mC]*eT*eA*e[5mC]*e[5mC]*eT*eG*e[5mC]*eA*e[5mC]*eT*eG*eT*eA*eA*eG*e[5mC]*eA*e[5mC]*eT*eT*eT*eT) [compound 327911]”, the “IGFBP1 mRNA expression” value is 160. The “IGFBP1 mRNA” value under setting [3] was 157.

For the substance “338664 (antisense e[5mC]*eA*eG*eA*e[5mC]*eT*e[5mC]*e[5mC]*e[5mC]*eA*eA*e[5mC]*eT*eG*eA*e[5mC]*e[5mC]*eA*eG*eA) [compound 338664]”, the “IGFBP-1 (% UTC)” value under setting [1] came out at 90 % UTC and the “IGFBP-1 (% UTC)” value under setting [2] amounted to 100 % UTC.

For “327933 (antisense eA*eA*eG*eG*eG*eA*eT*eT*e[5mC]*e[5mC]*eT*eG*eG*eG*eA*eA*eA*eA*e[5mC]*eT*eG*eG*eA*e[5mC]) [compound 327933]”, the “IGFBP-1 (% UTC)” value was 125 % UTC under setting [1] and 179 % UTC under setting [2].

Consider “341806 (antisense GCCAATATTTCTGTGCTGCTA; all 2'-MOE, all phosphorothioate, methylation of C not given here) [compound 341806]”, for which the “IGFBP1 mRNA” value under setting [3] is on record as 128.

With “327892 (antisense eA*e[5mC]*eT*eT*eT*e[5mC]*eG*eG*eT*eT*eA*eT*e[5mC]*eT*eA*eG*e[5mC]*eT*eT*eT*eA) [compound 327892]”, the “IGFBP-1 (% UTC)” value was determined as 108 % UTC under setting [1] and 139 % UTC under setting [2].

With “327923 (antisense eG*eA*eA*eA*eG*eA*eG*eA*e[5mC]*e[5mC]*eG*eG*eT*eT*e[5mC]*eA*e[5mC]*eT*eG*eT*eG*eA) [compound 327923]”, the “IGFBP1 mRNA expression” value is listed as 119. Further, under setting [3], the “IGFBP1 mRNA” value is 116.

As for “327876 (antisense eA*eA*e[5mC]*eA*e[5mC]*eT*eG*eA*eT*eT*eT*e[5mC]*eA*eA*eA*eT*eG*eG*eT*eG*e[5mC]*eT*eA) [compound 327876]”, the “IGFBP-1 (% UTC)” value is recorded as 93 % UTC under setting [1] and 118 % UTC under setting [2].

With “328685 (e[5mC]*eG*eG*e[5mC]*e[5mC]*dG*dG*dA*dG*d[5mC]*d[5mC]*dA*dT*dA*dG*eA*e[5mC]*eT*e[5mC]*eG; antisense) [compound 328685]”, the “IGFBP-1 (% UTC)” value was determined as 157 % UTC under setting [4] and 143 % UTC under setting [5].

On to “327954 (antisense eA*e[5mC]*eA*eA*eA*eG*eT*eT*e[5mC]*eT*eG*eT*eG*eA*eT*eG*e[5mC]*eA*e[5mC]*eT*eG*eA) [compound 327954]”, for which the “IGFBP-1 (% UTC)” value under setting [1] was determined as 118 % UTC and the “IGFBP-1 (% UTC)” value under setting [2] turned out to be 120 % UTC.

In the case of “341800 (antisense AAGCCCAAAAGGAGAAUUCUUUG; all 2'-MOE, all phosphorothioate, methylation of C and T or U not given here) [compound 341800]”, the “IGFBP1 mRNA” value under setting [3] is listed as 114.
